Measured values reported in patent US12239641B2, “Methods of treating or preventing fibrosis in non-alcoholic fatty liver disease” (priority 2018, dated 2025).
Entries after “also recorded” stand apart in the source; their conditions may differ. Each block holds one molecule with its values, some of them ahead of it.

Columns and labels:
[1] = compared with Yohimbine; cited from earlier work
[2] = system: Primary human hepatic stellate cells; experiment: 3D collagen gel contraction of hepatic stellate cells; type: cell-based; settings: 6 hours
Source text: Primary human HSCs (huHSC) were isolated from wedge sections of liver tissue obtained from patients with no history of liver disease undergoing liver resection for colorectal metastasis in the Royal Free Hospital, with local Tissue act for patient benefit ethics approval. All the participants provided written informed consent in accordance with the Helsinki Declaration.
Cells isolation in brief: 10 g of total human liver tissue was digested with 0.01% Collagenase, 0.05% Pronase and 0.001% DNase I without performing perfusion. The homogenate was filtered through a 100 µm cell strainer (BD Biosciences) and the flow-through was centrifuged at 50×g for 2 minutes at 4° C. After washing the supernatant, gradient centrifugation was performed at 1400×g for 17 minutes at 4° C. using an 11.5% Optiprep gradient (Sigma-Aldrich Company Ltd.). Finally, the interface was collected and washed. […]
Human and rat HSCs were cultured within 3D collagen gels (Fibroblast-populated collagen lattices; FPCL). […] Gel areas were measured using ImageJ v1.49 software (US National Institutes of Health, Bethesda MD, USA, http://imagej.nih.gov/ij/).

ADRA2a = molecular target: T1, ADRA2a (Homo sapiens, UniProt P08913); settings: some affinity for all; cited from earlier work
T1 sequence (P08913 1-465): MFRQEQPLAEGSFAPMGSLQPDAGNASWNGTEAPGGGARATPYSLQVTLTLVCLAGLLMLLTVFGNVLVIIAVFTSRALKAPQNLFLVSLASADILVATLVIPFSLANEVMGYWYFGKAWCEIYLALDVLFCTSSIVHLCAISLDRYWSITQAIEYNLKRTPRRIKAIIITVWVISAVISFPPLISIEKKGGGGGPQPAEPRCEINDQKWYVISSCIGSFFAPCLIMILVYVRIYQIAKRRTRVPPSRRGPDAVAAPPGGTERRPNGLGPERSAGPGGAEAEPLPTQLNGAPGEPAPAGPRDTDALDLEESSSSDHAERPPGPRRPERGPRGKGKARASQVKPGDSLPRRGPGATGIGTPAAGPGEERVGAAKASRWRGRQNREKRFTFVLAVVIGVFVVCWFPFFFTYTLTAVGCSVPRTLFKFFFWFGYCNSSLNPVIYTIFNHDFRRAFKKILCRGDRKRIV

[3] = system: noradrenaline (Norepinephrine—NE); experiment: Noradrenaline levels (HPLC) in HFHC NASH rats; type: in vivo, Sprague Dawley rats; settings: HFHC+YoHCl vs HFHC
Source text: (§1) Animals were studied after 16 weeks of feeding.

working memory = experiment: Working memory test in HFHC NASH rats; type: in vivo, Sprague Dawley rats; settings: HFHC diet 16 weeks, Yohimbine for the last 8 weeks vs placebo
Source text: as §1
Working memory and behavioural testing was through standard psychometric assessments before termination, such as application of the Barnes Maze.

[4] = system: cytokines and chemokines (Cx3CL1, CxCL5, CCL3); experiment: Cytokines and chemokines (ELISA) in HFHC NASH rats; type: in vivo, Sprague Dawley rats
Source text: as §1

[5] = system: rat model of NASH induced by a high fat high cholesterol (HFHC) diet; experiment: Rat model of NASH induced by HFHC diet: liver weight, fat, AST, histology scores, fibrosis; type: in vivo, Sprague Dawley rats
Source text: as §1

ADRA2A receptors = settings: HFHC+YoHCl vs HFHC
Protocol: Sprague Dawley rats (240-300 g) were randomly divided into 3 groups (Standard diet, HFHC+placebo, HFHC+Yohimbine). The animals were kept under controlled temperature (20±2° C.) and light (lights on at 08:00-20:00). The standard diet was composed of the following energy sources: 67 g carbohydrates (70 kcal %), 4 g fat (10 kcal %), and 19 g protein (20 kcal %) per 100 g diet. The HFC diet contained 19 g carbohydrates (15 kcal %), 39 g fat (65 kcal %), 2 g cholesterol, and 27 g protein (20 kcal %) per 100 g diet. The study was performed in accordance with local and national guidelines for animal welfare and approved by the institutional Animal Ethics Committee.
Animals were studied after 16 weeks of feeding. Animals in the HFHC group were randomised after 8 weeks of feeding to either treatment with placebo or Yohimbine, in addition to their ongoing diets. Yohimbine Hydrochloride (Product Number Y3125, Sigma-Aldrich, Dorset, UK), an ADRA2A antagonist, was administered in the drinking water at a dosage of 0.4 mg/kg rat/day. In the placebo treated group, an equivalent volume of water was administered. The rats were weighed daily and the Yohimbine treatment weight adjusted.
At the end of 16 weeks of feeding, rats were exsanguinated and the blood and tissues harvested and stored at −80 C for subsequent analyses. […]

[6] = system: Genes involved in fibrogenesis (TIMP-1 and Collal), MMP2; experiment: Expression of genes involved in fibrogenesis in HFHC NASH rats; type: in vivo, Sprague Dawley rats
Source text: as §1

[7] = H&E liver, HFHC+YoHCl (n=9) vs HFHC (n=6), 8 weeks treatment
[8] = HFHC model, Yohimbine therapy for 8 weeks, p=0.03

SMILES: COC(=O)[C@@H]1[C@H]2C[C@H]3c4[nH]c5cc(O)ccc5c4CCN3C[C@@H]2CC[C@@H]1O [11-OH Yohimbine]
- half life [1]: longer half life
- oral bioavailability [1]: better oral bioavailability

SMILES: CC1c2ccccc2CN1CC1=NCCN1 (stereo not shown) [BRL44408]
- contraction in a 3D collagen gel ([2]; 5 uM Guanfacine and 5 uM BRL44408 vs guanfacine alone): less contraction

SMILES: N=C(N)NC(=O)Cc1c(Cl)cccc1Cl [Guanfacine]
- contraction in a 3D collagen gel ([2]; 5 uM Guanfacine vs serum free medium): significantly greater contraction

SMILES: COC(=O)[C@H]1[C@H]2C[C@H]3c4[nH]c5ccccc5c4CCN3C[C@H]2CC[C@@H]1O [Rauwolscine]
- selectivity among ADRA2 subtypes (ADRA2a): most selective for ADRA2a

- ADRA2A receptor expression in liver tissue (ADRA2A receptors): does not significantly reduce
SMILES: COC(=O)[C@@H]1[C@H]2C[C@H]3c4[nH]c5ccccc5c4CCN3C[C@@H]2CC[C@@H]1O [Yohimbine]
- Levels of noradrenaline (NE) [3]: further but non-statistical increase
- working memory (working memory): significantly improved; also recorded: improves
- CCL3 protein expression ([4]; HFHC+YoHCl (8 weeks) vs HFHC): decrease markedly
- Cx3CL1 protein expression ([4]; HFHC+YoHCl (8 weeks) vs HFHC): decrease markedly
- CxCL5 protein expression ([4]; HFHC+YoHCl (8 weeks) vs HFHC): decrease markedly
- cytokines and chemokines (liver and systemic inflammation) ([4]; HFHCD_YoHCl vs HFHCD, 16 weeks diet): reduced liver and systemic inflammation
- hepatic inflammation score [5, 7]: significant reduction
- hepatic steatosis score [5, 7]: significant reduction
- hepatocyte ballooning score [5, 7]: significant reduction
- non-alcoholic fatty liver disease (NAFLD) activity score (NAS) [5, 7]: significant reduction
- fibrosis (Picro sirius red stained liver) ([5]; HFHC NASH rats with Yohimbine vs without treatment): visually decreased
- Collagen proportionate area (CPA) ([5]; HFHC NASH rats with Yohimbine vs without treatment, n=6 per group, HFHCD vs HFHCD_YoHCl p=0.016): reduced
- liver fat ([5]; HFHC diet 16 wks, Yohimbine for last 8 weeks): reduced
- Liver-body weight ratio ([5]; HFHC diet 16 wks, Yohimbine for last 8 weeks, 0.4 mg/kg rat/day in drinking water, HFHCD vs HFHCD_YoHCl p=0.014): restored
- AST (liver injury) ([5]; HFHC rats after 8 weeks of Yohimbine therapy, HFHCD vs HFHCD_YoHCl p=0.007): decreased
- Collal gene expression [6, 8]: significantly (p=0.03 for both) reduced
- TIMP-1 gene expression [6, 8]: significantly (p=0.03 for both) reduced
- MMP2 expression ([6]; HFHC rats, Yohimbine hydrochloride therapy): reduced
- selectivity among ADRA2 subtypes (ADRA2a): most selective for ADRA2a
